Measurements reported in patent publication US20240279227A1, “FUSED HETEROCYCLIC DERIVATIVES” (Janssen Sciences Ireland Unlimited Company, priority 2021, published 2024).

Legend:
HBV = test: Anti-HBV activity in HepG2.117 cell line (intracellular HBV DNA, real-time PCR); format: cell-based, hepatitis B virus; details: HepG2.117 cells, HBV replication induced, 3 days of treatment, intracellular HBV DNA by real-time PCR
Method: The anti HBV activity was measured using the HepG2.117 cell line, a stable, inducibly HBV producing cell line, which replicates HBV in the absence of doxycycline (Tet-off system). The HepG2 cell line is available from ATCCR under number HB-8065. Transfection of the HepG2 cell line can be as described in Sun and Nassal 2006 Journal of Hepatology 45 (2006) 636-645 “Stable HepG2-and Huh7-based human hepatoma cell lines for efficient regulated expression of infectious hepatitis B virus”.
For the antiviral assay, HBV replication was induced, followed by a treatment with serially diluted compound in 96-well plates. After 3 days of treatment, the antiviral activity was determined by quantification of intracellular HBV DNA using real-time PCR and an HBV specific primer set and probe.

[1] = Cytotoxicity, ATPlite Luminescence Assay; format: cell-based, human; details: human, HepG2 or HepG2.117 cells, 3-days incubation unless marked with *, ATPlite viability
Method: Cytotoxicity of the compounds was tested using HepG2 or HepG2.117 cells, incubated for 3 or 4 days in the presence of compounds. The viability of the cells was assessed using the PERKIN ELMER ATPlite Luminescence Assay System.”

[2] = Human liver microsome stability; format: in vitro ADME; details: 1 μM compound, NADPH 1 mM, pH 7.4, 37° C., 0-60 min; for half-life at 1 μM: human, pooled human liver microsomes, pH 7.4, pooled human liver microsomes 0.5 mg/mL, read-out: HLM Metabolism t1/2; for HLM Metabolism t1/2: pooled human liver microsomes 0.5 mg/mL
Method: Pooled human liver microsomes (0.5 mg/mL) was pre-incubated with 1 μM test compounds or control compounds (verapamil, warfarin and cerivastatin) in 0.1 M phosphate buffer pH 7.4 containing 1 mM MgCl2 at 37° C. The final concentration of DMSO and acetonitrile are 0.05% and 0.2%, respectively. All incubations are performed singularly for each compound. NADPH was added to initiate the reaction with the final concentration of 1 mM and the final incubation volume of 400 μL.
At 6 time points (0, 5, 10, 20, 40 and 60 min) reactions were stopped by the removal of 50 μL of the incubation mixture into plates containing acetonitrile at a of 1:3 (v:v). The plates were centrifuged at 3000 rpm for 10 min at 4° C. to precipitate the protein. Following protein precipitation, the sample supernatants were combined in cassettes of up to 8 compounds. The internal standard was added (1:1 supernatant to internal standard solution) and samples were analyzed using standard LC-MS conditions.
From a plot of ln peak area ratio (compound peak area/internal standard peak area) against time, the gradient of the line is determined. Subsequently, half-life is calculated using the equations below: […]

[3] = Hepatitis B virus, HepG2.117, 72 h

| Compound | EC50 (HBV) [µM] | CC50 [1] [µM] | half-life at 1 μM [2] [h] | HLM Metabolism t1/2 [2] [h] | EC50 (HBV; [3]) [µM] |
| --- | --- | --- | --- | --- | --- |
| CCC(c1ccc(S(C)(=O)=O)cc1)N1C[C@@H](C(=O)NC)n2nc3c(c2C1=O)CN(C(=O)c1ccc(Cl)c(Cl)c1)[C@H](C)C3 (single isomer, unassigned) [Compound 22A, (3R,7S)-2-(3,4-Dichlorobenzoyl)-N,3-dimethyl-9-((R*)-1-(4-(methylsulfonyl)phenyl)propyl)-10-oxo-1,2,3,4,7,8,9,10-octahydropyrido[4′,3′:3,4]pyrazolo[1,5-a]pyrazine-7-carboxamide] | 0.27 | > 50 | > 3 | – | – |
| CC(c1ccc(OC(F)F)cc1)N1C[C@@H](C(=O)NC2CC2)n2nc3c(c2C1=O)CN(C(=O)c1ccc(Cl)c(C#N)c1)[C@H](C)C3 (single isomer, unassigned) [Compound 26A, (3R,7S)-2-(4-Chloro-3-cyanobenzoyl)-N-cyclopropyl-9-((R*)-1-(4-(difluoromethoxy)phenyl)ethyl)-3-methyl-10-oxo-1,2,3,4,7,8,9,10-octahydropyrido[4′,3′:3,4]pyrazolo[1,5-a]pyrazine-7-carboxamide] | 0.19 | 29.7 | – | >3 | – |
| CNC(=O)[C@@H]1CN(C(C)c2ccc(C#N)cc2)C(=O)c2c3c(nn21)C[C@@H](C)N(C(=O)c1ccc(Cl)c(Cl)c1)C3 (single isomer, unassigned) [Compound 23A, (3R,7S)-9-((R*)-1-(4-Cyanophenyl)ethyl)-2-(3,4-dichlorobenzoyl)-N,3-dimethyl-10-oxo-1,2,3,4,7,8,9,10-octahydropyrido[4′,3′:3,4]pyrazolo[1,5-a]pyrazine-7-carboxamide] | 0.06 | > 50 | > 3 | – | – |
| CNC(=O)[C@@H]1CN([C@@H](C)c2ccc(C(F)(F)F)nc2)C(=O)c2c3c(nn21)C[C@@H](C)N(C(=O)c1ccc(Cl)c(Cl)c1)C3 [Compound 13B, (3R,7S)-2-(3,4-dichlorobenzoyl)-N,3-dimethyl-10-oxo-9-((S)-1-(6-(trifluoromethyl)pyridin-3-yl)ethyl)-1,2,3,4,7,8,9,10-octahydropyrido[4′,3′:3,4]pyrazolo[1,5-a]pyrazine-7-carboxamide] | – | 46.8 | > 3 | – | 0.033 |
| CNC(=O)[C@@H]1CN(C(C)c2ccc(C3CC3)nc2)C(=O)c2c3c(nn21)C[C@@H](C)N(C(=O)c1ccc(Cl)c(Cl)c1)C3 (single isomer, unassigned) [Compound 32A, (3R,7S)-9-((R*)-1-(6-Cyclopropylpyridin-3-yl)ethyl)-2-(3,4-dichlorobenzoyl)-N,3-dimethyl-10-oxo-1,2,3,4,7,8,9,10-octahydropyrido[4′,3′:3,4]pyrazolo[1,5-a]pyrazine-7-carboxamide] | 0.055 | > 50 | 2.12 | – | – |
| CNC(=O)[C@@H]1CN(C(C)c2ccc(NCC(F)(F)F)nc2)C(=O)c2c3c(nn21)C[C@@H](C)N(C(=O)c1ccc(Cl)c(Cl)c1)C3 (single isomer, unassigned) [Compound 33A, (3R,7S)-2-(3,4-Dichlorobenzoyl)-N,3-dimethyl-10-oxo-9-((R*)-1-(6-((2,2,2-trifluoroethyl)amino)pyridin-3-yl)ethyl)-1,2,3,4,7,8,9,10-octahydropyrido[4′,3′:3,4]pyrazolo[1,5-a]pyrazine-7-carboxamide] | – | > 50 | – | 0.798 | 0.062 |
| CNC(=O)[C@@H]1CN([C@H](C)c2ccc(C(F)(F)F)nc2)C(=O)c2c3c(nn21)C[C@@H](C)N(C(=O)c1ccc(Cl)c(C(F)(F)F)c1)C3 [Compound 15A, (3R,7S)-2-(4-Chloro-3-(trifluoromethyl)benzoyl)-N,3-dimethyl-10-oxo-9-((R)-1-(6-(trifluoromethyl)pyridin-3-yl)ethyl)-1,2,3,4,7,8,9,10-octahydropyrido[4′,3′:3,4]pyrazolo[1,5-a]pyrazine-7-carboxamide] | – | > 50 | > 3 | – | 0.086 |
| CNC(=O)[C@@H]1CN(Cc2ccc(OC(F)F)cc2)C(=O)c2c3c(nn21)C[C@@H](C)N(C(=O)c1ccc(Cl)c(Cl)c1)C3 [Compound 17, (3R,7S)-2-(3,4-Dichlorobenzoyl)-9-(4-(difluoromethoxy)benzyl)-N,3-dimethyl-10-oxo-1,2,3,4,7,8,9,10-octahydropyrido[4′,3′:3,4]pyrazolo[1,5-a]pyrazine-7-carboxamide] | – | 39.1 | > 3 | – | 0.036 |
| CNC(=O)[C@@H]1CN([C@H](C)c2ccc(C(F)(F)F)nc2)C(=O)c2c3c(nn21)C[C@@H](C)N(C(=O)c1ccc(Cl)c(Cl)c1)C3 [Compound 13A, (3R,7S)-2-(3,4-Dichlorobenzoyl)-N,3-dimethyl-10-oxo-9-((R)-1-(6-(trifluoromethyl)pyridin-3-yl)ethyl)-1,2,3,4,7,8,9,10-octahydropyrido[4′,3′:3,4]pyrazolo[1,5-a]pyrazine-7-carboxamide] | – | > 50 | > 3 | – | 0.34 |
| CNC(=O)[C@@H]1CN(C(C)c2ccn(CC(F)(F)F)n2)C(=O)c2c3c(nn21)C[C@@H](C)N(C(=O)c1ccc(Cl)c(C(F)(F)F)c1)C3 (single isomer, unassigned) [Compound 14B, (3R,7S)-2-(4-chloro-3-(trifluoromethyl)benzoyl)-N,3-dimethyl-10-oxo-9-((S*)-1-(1-(2,2,2-trifluoroethyl)-1H-pyrazol-3-yl)ethyl)-1,2,3,4,7,8,9,10-octahydropyrido[4′,3′:3,4]pyrazolo[1,5-a]pyrazine-7-carboxamide] | – | > 50 | > 3 | – | 0.031 |
| CNC(=O)[C@@H]1CN(C(C)c2ccc(-c3c(C)noc3C)nc2)C(=O)c2c3c(nn21)C[C@@H](C)N(C(=O)c1ccc(Cl)c(Cl)c1)C3 (single isomer, unassigned) [Compound 35A, (3R,7S)-2-(3,4-Dichlorobenzoyl)-9-((R*)-1-(6-(3,5-dimethylisoxazol-4-yl)pyridin-3-yl)ethyl)-N,3-dimethyl-10-oxo-1,2,3,4,7,8,9,10-octahydropyrido[4′,3′:3,4]pyrazolo[1,5-a]pyrazine-7-carboxamide] | 0.39 | > 50 | 1.16 | – | – |
| C[C@@H]1Cc2nn3c(c2CN1C(=O)c1ccc(Cl)c(C#N)c1)C(=O)N([C@@H](C)c1ccc(OC(F)F)cc1)C[C@H]3C(=O)N(C)C [Compound 27B, (3R,7S)-2-(4-chloro-3-cyanobenzoyl)-9-((S)-1-(4-(difluoromethoxy)phenyl)ethyl)-N,N,3-trimethyl-10-oxo-1,2,3,4,7,8,9,10-octahydropyrido[4′,3′:3,4]pyrazolo[1,5-a]pyrazine-7-carboxamide] | – | > 50 | > 3 | – | 0.046 |
| CC(c1ccc(C(F)(F)F)nc1)N1C[C@@H](C(=O)N(C)C)n2nc3c(c2C1=O)CN(C(=O)c1ccc(Cl)c(Cl)c1)[C@H](C)C3 (single isomer, unassigned) [Compound 8B, (3R,7S)-2-(3,4-dichlorobenzoyl)-N,N,3-trimethyl-10-oxo-9-((S*)-1-(6-(trifluoromethyl)pyridin-3-yl)ethyl)-1,2,3,4,7,8,9,10-octahydropyrido[4′,3′:3,4]pyrazolo[1,5-a]pyrazine-7-carboxamide] | – | > 50 | > 3 | – | 0.071 |
| C[C@@H]1Cc2nn3c(c2CN1C(=O)c1ccc(Cl)c(Cl)c1)C(=O)N([C@H](C)c1ccc(OC(F)F)cc1)CC3 [Ref 1, reference compound] | – | > 50 | 0.257 | – | 0.069 |
| CNC(=O)[C@@H]1CN(C(C)c2ccc(-c3nnnn3C)cc2)C(=O)c2c3c(nn21)C[C@@H](C)N(C(=O)c1ccc(Cl)c(Cl)c1)C3 (single isomer, unassigned) [Compound 29A, (3R,7S)-2-(3,4-Dichlorobenzoyl)-N,3-dimethyl-9-((R*)-1-(4-(1-methyl-1H-tetrazol-5-yl)phenyl)ethyl)-10-oxo-1,2,3,4,7,8,9,10-octahydropyrido[4′,3′:3,4]pyrazolo[1,5-a]pyrazine-7-carboxamide] | 0.82 | > 50 | > 3 | – | – |
